Holding throughout (type): in vivo
Data set [1] concerns MES-induced seizures. The data set is described as follows: Test 1: Maximal Electroshock Test (MES), mice i.p. The following applies: for MES: class symbol = dose. Here is the method:
(§1) Most of the prodrugs and mutual prodrugs of anticonvulsants described in this invention were evaluated at National Institute of Neurological Disorders and Stroke (NINDS), National Institute of Health (NIH), under their Antiepileptic Screening Program (ASP).
(§2) Test 1 is an initial screening for anticonvulsant activity in the Maximal Electroshock Test (MES) and Subcutaneous Metrazol Seizure Threshold Test (scMET) models combined with an initial assessment of toxicity (TOX) in mice via i.p. injection (see further explanation below). The data for each condition is presented as N/F, where N = number of animals protected from seizure and F = number of animals tested. For test of toxicity, N = number of animals displaying toxic effects and F = number of animals tested. Any deaths occurring during the test were recorded.
(§3) Maximal Electroshock Test (MES): The MES is a model for generalized tonic-clonic seizure and provides an indication of a compound's ability to prevent seizure spread when all neuronal circuits in the brain are maximally active. These seizures are highly reproducible and electro-physiologically consistent with human seizures. For all tests based on MES convulsions, 60 Hz of alternating current (50 mA in mice) is delivered for […] by corneal electrodes, which have been primed with an electrolyte solution containing an anesthetic agent (0.5% tetracaine hydrochloride). Mice were tested at various intervals following doses of 30, 100 and 300 mg/kg of test compound given by i.p. injection of a volume of 0.01 mL/g. Other doses can be used if indicated by previously known pharmacology. An animal is considered "protected" from MES-induced seizures upon abolition of the hind-limb tonic extensor component of the seizure.
In general terms: In the maximal electroshock model the usual endpoint is tonic extension of the hind limbs.

Data set [2] has as its system minimal muscular or neurological impairment. The data set is described as follows: Test 1: Acute toxicity, minimal motor impairment (rotorod), mice i.p. The following applies: for Rotorod Toxicity (number of animals exhibiting toxicity/number of animals tested): 300 mg/kg (+); for Rotorod Toxicity: class symbol = dose. Here is the method:
as §1, §2

For the next data set, the system named is clonic seizures. Briefly: Test 1: Subcutaneous Metrazol Seizure Threshold Test (scMET), mice i.p. The following applies: for ScMET (number of animal protected/number of animal tested): 300 mg/kg (+); for ScMET: class symbol = dose. Here is the method: as §1, §2
Subcutaneous Metrazol Seizure Threshold Test (scMET): Subcutaneous injection of the convulsant metrazol produces clonic seizures in laboratory animals. […] Animals were pretreated with various doses of the test compound given by i.p. injection. At the previously determined Time to Peak Effect (TPE) of the test compound, the dose of metrazol which will produce convulsions in 97% of animals (CD97: 85 mg/kg in mice) was injected into a loose fold of skin in the midline of the neck. The animals were placed in isolation cages to minimize stress and observed for the next 30 minutes for the presence or absence of a seizure. An episode of clonic spasms, approximately […], of the fore and/or hind limbs, jaws, or vibrissae is taken as the end point.

The test system of data set [3] is MES-induced seizures. The data set is described as follows: Test 2: MES, rats p.o.
Source text: as §3
Rats received test compounds orally.

The mark [4] stands for this setting: 100 mg/kg (++), 2 hours after dosing.
Where [5] appears, read: at 2 hours after dosing (footnote h).

The structures appear in SMILES notation. “Also recorded” adds a separate entry of the source. Marks after values point to notes of the source that are not given here.

`CCOC(=O)CC1(CNC(=O)OCCSSCCO[N+](=O)[O-])CCCCC1` [I-A1-NOPD1]: the “MES (number of animal protected/number of animal tested)” value in the data set with MES-induced seizures [1] (100 mg/kg (++), 0.25 hours after dosing) was “(1/3)^k”; in the data set on MES-induced seizures [1] (300 mg/kg (+), 0.5 h) it was 1/1. Besides, the MES entry in the data set on MES-induced seizures [1] (0.5 h) is on record as “+ (+ = activity or toxicity at 300 mg/kg)”; with MES-induced seizures [1] (4.0 h), “- (- = no activity or no toxicity at 300 mg/kg)”; with MES-induced seizures [1] (at 0.25 hours after dosing (footnote k)), “++ (++ = activity or toxicity at 100 mg/kg)”. Further, in data set [2] (0.5 h), the “Rotorod Toxicity (number of animals exhibiting toxicity/number of animals tested)” value is recorded as 4/4. In addition, the “Rotorod Toxicity” value in data set [2] (4.0 h) is “- (- = no activity or no toxicity at 300 mg/kg)”. Further, the “ScMET (number of animal protected/number of animal tested)” value with clonic seizures (0.5 h) is reported as 1/1. In the data set with clonic seizures (4.0 h), the ScMET entry is “- (- = no activity or no toxicity at 300 mg/kg)”.

For `CCOC(=O)CC1(CNC(=O)OCCSSCC(=O)OC)CCCCC1` [I-A1-PD5], the “activity in MES (Test 1, in words)” value with MES-induced seizures [1] is recorded as “active in MES”. Moreover, the MES entry with MES-induced seizures [1] (0.5 h) was “+ (+ = activity or toxicity at 300 mg/kg)”; in the data set with MES-induced seizures [1] (4.0 h), “- (- = no activity or no toxicity at 300 mg/kg)”. Besides, in data set [2], the “toxicity (Test 1, in words)” value is “no or mild toxicity”. Further, the “Rotorod Toxicity (number of animals exhibiting toxicity/number of animals tested)” value in data set [2] (0.5 h) is on record as 3/4. Besides, the “Rotorod Toxicity” value in data set [2] (0.5 h) is listed as “+ (+ = activity or toxicity at 300 mg/kg)”; in data set [2] (4.0 h) it was “- (- = no activity or no toxicity at 300 mg/kg)”. Also, the figures for the ScMET result in the data set with clonic seizures (0.5 h) and with clonic seizures (4.0 h) were “+ (+ = activity or toxicity at 300 mg/kg)” and “- (- = no activity or no toxicity at 300 mg/kg)”, respectively.

On to `CS(=O)(=O)NC(=O)OCCSSCCOC(=O)Nc1nnc(-c2cccc(Cl)c2Cl)c(N)n1` [I-A1-PD15], for which, in the data set with MES-induced seizures [1], the “activity in MES (Test 1, in words)” value is “active in MES”. In addition, the “MES (number of animal protected/number of animal tested)” value is recorded as 2/3 with MES-induced seizures [1] (100 mg/kg (++), 4.0 h); “(1/1)” in the data set on MES-induced seizures [1] (300 mg/kg (+), 0.5 h); 1/1 in the data set with MES-induced seizures [1] (300 mg/kg (+), 4.0 h); 0/4 in the data set with MES-induced seizures [3] (30 mg/kg, 0.50 h); 1/4 in the data set with MES-induced seizures [3] (30 mg/kg, 1.00 h); 3/4 in the data set with MES-induced seizures [3] (30 mg/kg, 2.00 h). Besides, the “MES (number of animal protected/number of animal tested)” value with MES-induced seizures [3] (30 mg/kg, 4.00 h) is recorded as 4/4. In addition, in the data set on MES-induced seizures [1] (0.5 h), the MES result is reported as “+ (+ = activity or toxicity at 300 mg/kg)”. Besides, in data set [2], the “toxicity (Test 1, in words)” value is “no or mild toxicity”. Besides, the “Rotorod Toxicity” value in data set [2] (0.5 h) and in data set [2] (4.0 h) was “- (- = no activity or no toxicity at 300 mg/kg)” each time. For the same molecule, the ScMET result in the data set with clonic seizures (0.5 h) and in the data set with clonic seizures (4.0 h) was “- (- = no activity or no toxicity at 300 mg/kg)” in each case.

Turning to `CCOC(=O)CC1(CNC(=O)OCCSSCCOC(=O)NC(=O)[C@H](CC)N2CCCC2=O)CCCCC1` [I-AA-MPD13], the MES entry with MES-induced seizures [1] (0.5 h) and in the data set on MES-induced seizures [1] (4.0 h) was “- (- = no activity or no toxicity at 300 mg/kg)” each time. The “Rotorod Toxicity (number of animals exhibiting toxicity/number of animals tested)” value in data set [2] (0.5 h) was 4/4. Also, the “Rotorod Toxicity” value in data set [2] (0.5 h) is “+ (+ = activity or toxicity at 300 mg/kg)”; in data set [2] (4.0 h) it was “- (- = no activity or no toxicity at 300 mg/kg)”. Also, the “ScMET (number of animal protected/number of animal tested)” value in the data set on clonic seizures (0.5 h) was 1/1. Moreover, the ScMET result in the data set on clonic seizures (0.5 h) is “+ (+ = activity or toxicity at 300 mg/kg)”; in the data set on clonic seizures (4.0 h), “- (- = no activity or no toxicity at 300 mg/kg)”.

Take `CCCC(CCC)C(=O)OCCSSCCOC(=O)Nc1nnc(-c2cccc(Cl)c2Cl)c(N)n1` [I-CA-MPD23]: in the data set on MES-induced seizures [1], the “activity in MES (Test 1, in words)” value is reported as “active in MES”. The “MES (number of animal protected/number of animal tested)” value is 1/3 in the data set with MES-induced seizures [1] (setting [4]); 1/3 with MES-induced seizures [1] (300 mg/kg (+), 4.0 h); 4/4 in the data set on MES-induced seizures [3] (150 mg/kg, 2.00 h); 4/4 in the data set on MES-induced seizures [3] (150 mg/kg, 4.00 h); 4/4 in the data set on MES-induced seizures [3] (150 mg/kg, 6.00 h); 4/4 in the data set on MES-induced seizures [3] (150 mg/kg, 8.00 h). Moreover, the MES entry in the data set with MES-induced seizures [1] (0.5 h) is “- (- = no activity or no toxicity at 300 mg/kg)”; with MES-induced seizures [1] (4.0 h), “+ (+ = activity or toxicity at 300 mg/kg)”; in the data set with MES-induced seizures [1] (setting [5]), “++ (++ = activity or toxicity at 100 mg/kg)”. Besides, the “toxicity (Test 1, in words)” value in data set [2] is “no or mild toxicity”. Moreover, the “Rotorod Toxicity” value in data set [2] (0.5 h) and in data set [2] (4.0 h) was “- (- = no activity or no toxicity at 300 mg/kg)” in each case. Moreover, the ScMET result in the data set with clonic seizures (0.5 h) and in the data set with clonic seizures (4.0 h) was “- (- = no activity or no toxicity at 300 mg/kg)” each time.

As to `Nc1nc(NC(=O)OCCSSCCOC(=O)c2cccnc2)nnc1-c1cccc(Cl)c1Cl` [I-CA-MPD24], in the data set on MES-induced seizures [1], the “activity in MES (Test 1, in words)” value was “active in both MES and scMET models”. In addition, the “MES (number of animal protected/number of animal tested)” value with MES-induced seizures [1] (setting [4]) is recorded as 3/3; in the data set on MES-induced seizures [1] (100 mg/kg (++), 4.0 h), 3/3; in the data set on MES-induced seizures [1] (100 mg/kg (++), 6 hours after dosing), “(3/3)^m”; in the data set with MES-induced seizures [3] (30 mg/kg, 0.50 h) it was 0/4; in the data set on MES-induced seizures [3] (30 mg/kg, 1.00 h) it was 2/4; in the data set on MES-induced seizures [3] (30 mg/kg, 2.00 h), 3/4. The “MES (number of animal protected/number of animal tested)” value in the data set with MES-induced seizures [3] (30 mg/kg, 4.00 h) is on record as 4/4. For the same molecule, the MES result in the data set with MES-induced seizures [1] (0.5 h) is “- (- = no activity or no toxicity at 300 mg/kg)”; in the data set with MES-induced seizures [1] (4.0 h) it was “++ (++ = activity or toxicity at 100 mg/kg)”; with MES-induced seizures [1] (setting [5]) it was “++ (++ = activity or toxicity at 100 mg/kg)”; with MES-induced seizures [1] (at 6 hours after dosing (footnotes g, m)), “++ (++ = activity or toxicity at 100 mg/kg)”. For the same molecule, in data set [2], the “toxicity (Test 1, in words)” value is reported as “non-toxic; also recorded: no or mild toxicity”. Besides, the “Rotorod Toxicity” value in data set [2] (0.5 h) and in data set [2] (4.0 h) was “- (- = no activity or no toxicity at 300 mg/kg)” throughout. Besides, the “activity in scMET (Test 1, in words)” value in the data set with clonic seizures is “active in both MES and scMET models”. Further, the “ScMET (number of animal protected/number of animal tested)” value in the data set on clonic seizures (4.0 h) is “(1/1)^l”. The ScMET entry in the data set on clonic seizures (0.5 h) was “- (- = no activity or no toxicity at 300 mg/kg)”.

Regarding `Cl.Nc1nc(NC(=O)OCCSSCCNC(=O)c2cccnc2)nnc1-c1cccc(Cl)c1Cl` [I-CA-MPD25], the “activity in MES (Test 1, in words)” value in the data set with MES-induced seizures [1] is reported as “active in MES”. In addition, the “MES (number of animal protected/number of animal tested)” value in the data set on MES-induced seizures [1] (100 mg/kg (++), 4.0 h) is 2/3; in the data set on MES-induced seizures [1] (300 mg/kg (+), 0.5 h), “(1/1)”; in the data set on MES-induced seizures [1] (300 mg/kg (+), 4.0 h), 1/1; with MES-induced seizures [3] (30 mg/kg, 0.50 h), 0/4; with MES-induced seizures [3] (30 mg/kg, 1.00 h), 3/4; in the data set on MES-induced seizures [3] (30 mg/kg, 2.00 h), 4/4. Moreover, the “MES (number of animal protected/number of animal tested)” value in the data set on MES-induced seizures [3] (30 mg/kg, 4.00 h) is on record as 2/4. Besides, the MES result in the data set with MES-induced seizures [1] (0.5 h) is “+ (+ = activity or toxicity at 300 mg/kg)”. The “toxicity (Test 1, in words)” value in data set [2] is on record as “no or mild toxicity”. The “Rotorod Toxicity” value in data set [2] (0.5 h) and in data set [2] (4.0 h) was “- (- = no activity or no toxicity at 300 mg/kg)” in each case. Moreover, the ScMET result in the data set with clonic seizures (0.5 h) and in the data set with clonic seizures (4.0 h) was “- (- = no activity or no toxicity at 300 mg/kg)” throughout.
